The results in this text go back to ChEMBL document CHEMBL1150622, “Three new modified limonoids from Khaya senegalensis” (J Nat Prod, 2002).

One series relates to MT4. In words: Cytotoxicity against human MT4 cells at 100 ug/mL. The format is cell-based.
Series [1] relates to Human immunodeficiency virus 1. Description: Antiviral activity against HIV1 in human MT4 cells assessed as inhibition of virus-induced cytopathic effect at 100 ug/mL. The format is functional, organism-based. Background: Protection from cytopathic effect is a common read-out in antiviral testing.

Activity calls are given as the source filed them. The rule behind the calls is not given here.

Consider `COC(=O)[C@]1(C)[C@@H]([C@@]2(C)C=CC(=O)C(C)(C)[C@@H]2CO[C@@H]2O[C@H](CO)[C@@H](O)[C@H](O)[C@H]2O)CC[C@@]2(C)[C@H](c3ccoc3)OC(=O)[C@H]3O[C@]321` [KHAYANOSIDE], for which the Activity result with MT4 is on record as “Not Active”. Further, the result in series [1] was inactive.

`COC(=O)C[C@H]1[C@]2(C)C[C@]3(O)[C@H]4[C@@H](O[C@]56CC(=O)O[C@@H](c7ccoc7)[C@]5(C)CC[C@H]([C@]13C)[C@]46O)[C@H]2O` [khayanolide D]: the Activity result in the series on MT4 is given as “Not Active”. For the same molecule, in series [1], the outcome was inactive.

`COC(=O)[C@H](O)[C@@H]1[C@@]2(C)[C@H]3CC[C@@]4(C)[C@H](c5ccoc5)OC(=O)C[C@@]45O[C@H]4C(=O)[C@@]1(C)C[C@]2(OC(C)=O)[C@@H]4[C@@]35O` [khayanolide E]: in the series on MT4, the Activity entry was “Not Active”. Moreover, the outcome in series [1] was inactive.
